In patent publication US6537545B1, “Use of corneal hardening agents in enzymeorthokeratology” (ISTA Pharmaceuticals, Inc., priority 1998, dated 2003):

What was measured:
Type in all cases: in vivo
[1] = tested on: eyes of myopic human subjects; test: Mild myopia study, group III: corrective lenses and 3% glyceraldehyde without hyaluronidase (Example 9); conditions: for UVA at follow-up after end of treatment: no hyaluronidase
Source text: (§1) Given the favorable results obtained in Example 8, an additional study was undertaken to test the safety and efficacy of the method of the present invention using a larger group of subjects. In this study, a group of subjects were selected and randomly separated into three test groups to test the safety and efficacy of using hyaluronidase and a glyceraldehyde solution for treating subjects with sub-optimal visual acuity. Groups one and two received an intrastromal injection of hyaluronidase (50 and 500 IU, respectively), while group three received a control injection of saline.
(§2) Following a two week incubation period after the injection, the three groups were fitted with corrective lenses to optimize the visual acuity of the subjects. The corrective lenses were left in place for a period of time sufficient to alter the shape of the subjects' eyes so as to achieve an optimal visual acuity. This period of time was generally 2 days in length. Once an acceptable visual acuity was achieved, the subjects in the three groups received a topical 3% glyceraldehyde solution in the form of ophthalmic drops four times per day while wearing the corrective lenses. The glyceraldehyde treatment was generally administered for one month. Lens wear occurred from 8 to 12 hours during the day.
(§3) At the end of the treatment period both the lens wear and the glyceraldehyde solution administration was terminated. The general health and visual acuity of the subjects was monitored from 3 to 5 months following treatment termination.
As with groups I and II, the test subjects were examined initially to establish a baseline from which the future results of the treatment were compared. Following the establishment of a baseline reading, group III subjects were fitted with contact lenses and wore the corrective lenses at night for a period of two (2) to seven (7) days or until an acceptable visual acuity (approximately 20/20) was achieved. Unlike groups I and II, group III test subjects in this group received no injection of hyaluronidase during the course of treatment. Subjects achieving an acceptable visual acuity received the topical 3% glyceraldehyde solution in the form of ophthalmic drops four times per day (08:00, 12:00, 16:00, and 20:00) for a period of 1 month in conjunction with daytime lens wear for stabilization. During this period, lens wear occurred for approximately 8-12 hours per day and there was no nocturnal lens wear.
(§4) The subjects were examined periodically during the glyceraldehyde treatment to monitor changes in the health of the treated eyes.
(§5) At the end of the treatment period, the stabilizing lens were removed and the administration of the 3% glyceraldehyde solution was terminated. Following termination of the treatment, the subjects were examined immediately after treatment was terminated, once a week for the first four weeks after termination, and then monthly to measure changes in the visual acuity of the treated eyes. The health of the eye was also monitored. Sequelae characterized by the appearance or worsening of serious ocular symptoms or slit-lamp findings observed during these examinations was assessed. The proportions of subjects with such findings were analyzed.
The visual acuity values shown are obtained using the Snellen letters test and the Early Treatment Diabetic Retinopathy Study (ETDRS) protocol. The table values shown are the better values as compared between the results of the two methods. The subjects' baseline visual acuity ranged from 20/80 to 20/300.

[2] = tested on: Dutch Belted rabbit corneal epithelium; test: Corneal scraping, rate of re-epithelialization (Example 2); conditions: rabbits; scraping on Study Day 71 after 63 days of drops; examined 1, 2, 3 days post-scraping; vs BSS
Method: On Study Day 71 (following 63 days of drops), corneal scrapings were performed as follows. Photographs of the uninstrumented eyes were taken after fluorescein staining. Fluorescein staining was performed as described in Example 1. The examined animals were then placed under general anesthesia using ketamine/xylazine also as described in Example 1. Two (2) drops of proparacaine were instilled into both eyes of the examined animal as an anesthetic. The animal to be examined was then placed on an examination table with one eye gently proptosed. A 10×15 mm strip of epithelium from the central cornea was denuded with a sterile #11 scalpel blade (Feather Safety Razor Co., Ltd., Japan). The examined animal was then returned to the slit lamp, topical fluorescein was applied, and the eye was photographed. The animals were examined for reepithelialization at 1, 2, and 3 days post-scraping. Photographs were taken and the rate of re-epithelialization was determined and documented.

[3] = tested on: eyes of myopic human subjects; test: Mild myopia study, group II: 500 IU hyaluronidase, corrective lenses, 3% glyceraldehyde (Example 9)
Source text: as §1, §2, §3
The subjects of group II were treated as those in group I in preparation for their participation in the study reported here. Before beginning the experimental protocol, test subjects were examined initially to establish a baseline from which the future results of the treatment were compared.
Following the establishment of a baseline reading, group II subjects were fitted with contact lenses and wore the corrective lenses at night for a period of two (2) to seven (7) days or until an acceptable visual acuity (approximately 20/20) was achieved. Group II test subjects received 500 IU of hyaluronidase by injection as compared to the 50 IU of group I. Two groups of subjects received 500 IU of hyaluronidase. The results obtained from the first group are shown in Table IIIA and the results from the second group are shown in Table IIIA and are identified in the table by the notation Gr. VI. There were no meaningful differences in the treatment protocols between these two groups. Subjects achieving an acceptable visual acuity received the topical 3% glyceraldehyde solution in the form of ophthalmic drops four times per day (08:00, 12:00, 16:00, and 20:00) for a period of 1 month in conjunction with daytime lens wear for stabilization. During this period, lens were occurred for approximately 8-12 hours per day and there was no nocturnal lens wear.
as §4
as §5, with “examinations were” for “examinations was”

## O=CC(O)CO (stereo not shown) [glyceraldehyde]
[1]; glyceraldehyde treatment in the absence of hyaluronidase
  overall effect on retention of orthokeratology benefits: effective in extending the retention time
[1]; subject 005, four month time point, baseline 20/100
  UVA at follow-up after end of treatment: 20/100
[1]; subject 006, five month time point, baseline 20/200
  UVA at follow-up after end of treatment: 20/100
[1]; subject 012, four month time point, baseline 20/200
  UVA at follow-up after end of treatment: 20/100
[1]; subject 014, three month time point, baseline 20/80
  UVA at follow-up after end of treatment: 20/50
[1]; subject 016, four month time point, baseline 20/300
  UVA at follow-up after end of treatment: 20/80
[1]; subject 016, three month point, baseline 20/300
  UVA at follow-up after end of treatment: 20/60
[1]; subject 021, two month time point, baseline 20/80
  UVA at follow-up after end of treatment: 20/60
[1]; subject 032, two month time point, baseline 20/120
  UVA at follow-up after end of treatment: 20/60
[2]
  healing rate of scraped corneas (re-epithelialization): healed at a rate equivalent to those of the control
[3]; Gr. VI subject 101, one month time point, baseline 20/200
  UVA at follow-up after lens removal: 20/60
[3]; Gr. VI subject 102, two month date, baseline 20/160
  UVA at follow-up after lens removal: 20/20
[3]; Gr. VI subject 103, two month date, baseline 20/160
  UVA at follow-up after lens removal: 20/50
[3]; Gr. VI subject 104, one month time point, baseline 20/200
  UVA at follow-up after lens removal: 20/80
[3]; Gr. VI subject 105, two month date, baseline 20/200
  UVA at follow-up after lens removal: 20/80
[3]; Gr. VI subject 106, two month date, baseline 20/160
  UVA at follow-up after lens removal: 20/63
[3]; Gr. VI subject 107, one month time point, baseline 20/60
  UVA at follow-up after lens removal: 20/20
[3]; combination of hyaluronidase (500 IU) and glyceraldehyde treatment
  overall effect on retention of orthokeratology benefits: effective at retaining the benefits of orthokeratology
[3]; subject 00S/031, three month point, baseline 20/200
  UVA at follow-up after lens removal: 20/50
[3]; subject 004, four month point, baseline 20/160
  UVA at follow-up after lens removal: 20/50
[3]; subject 013, three month point, baseline 20/100
  UVA at follow-up after lens removal: 20/40
[3]; subject 017, three month point, baseline 20/50
  UVA at follow-up after lens removal: 20/25
[3]; subject 018, three month point, baseline 20/80
  UVA at follow-up after lens removal: 20/25
[3]; subject 019, three month point, baseline 20/70
  UVA at follow-up after lens removal: 20/15
[3]; subject 023, two months, baseline 20/70
  UVA at follow-up after lens removal: 20/20
[3]; subject 026, two months, baseline 20/50
  UVA at follow-up after lens removal: 20/25
[3]; subject 030, two months, baseline 20/300
  UVA at follow-up after lens removal: 20/100
[3]; subject P10/008, three month point, baseline 20/400
  UVA at follow-up after lens removal: 20/80
